Converted amounts (≈) assume the structure as drawn. The source made the active and inactive calls. The rule behind the calls is not given here.
Experiments:
CAPAN-1 = assay: Antiproliferative activity against human CAPAN-1 cells assessed as inhibition of cell growth incubated for 72 hrs by MTT assay; assay type: functional, cell-based; conditions: CAPAN-1, 72 h
HCT-116 [1] = assay: Antiproliferative activity against human HCT-116 cells assessed as inhibition of cell growth incubated for 72 hrs by MTT assay; assay type: functional, cell-based; conditions: HCT-116, 72 h
LN-229 = assay: Antiproliferative activity against human LN-229 cells assessed as inhibition of cell growth incubated for 72 hrs by MTT assay; assay type: functional, cell-based; conditions: LN-229, 72 h
NCI-H1975 = assay: Antiproliferative activity against human NCI-H1975 cells assessed as inhibition of cell growth incubated for 72 hrs by MTT assay; assay type: functional, cell-based; conditions: NCI-H1975, 72 h
Z-138 = assay: Antiproliferative activity against human Z138 cells assessed as inhibition of cell growth incubated for 72 hrs by MTT assay; assay type: functional, cell-based; conditions: Z-138, 72 h
[2] = Antiproliferative activity against human DND41 cells assessed as inhibition of cell growth incubated for 72 hrs by MTT assay; assay type: functional, cell-based; conditions: DND41, 72 h
HL-60 = assay: Antiproliferative activity against human HL-60 cells assessed as inhibition of cell growth incubated for 72 hrs by MTT assay; assay type: functional, cell-based; conditions: HL-60, 72 h
K562 = assay: Antiproliferative activity against human K562 cells assessed as inhibition of cell growth incubated for 72 hrs by MTT assay; assay type: functional, cell-based; conditions: K562, 72 h
[3] = Antiproliferative activity against multidrug resistant human K562/4 cells expressing P-gp assessed as inhibition of cell growth incubated for 72 hrs by MTT assay; assay type: functional, cell-based; conditions: K562/4, 72 h
[4] = Cytotoxicity against hFB-hTERT6 cells assessed as inhibition of cell growth incubated for 72 hrs by MTT assay; assay type: toxicity, cell-based; conditions: human
[5] = Solubility of compound in deionized water at pH 6; assay type: physicochemical
DNA [6] = assay: Binding affinity to pBR322 plasmid DNA (unknown origin) assessed as DNA intercalation by measuring reduction in electrophoretic shift at 5 to 20 uM incubated for 30 mins by EtBr staining based agarose gel electrophoresis; assay type: nucleic-acid assay; conditions: dose 5-20 µM
[7] = target: T1, DNA topoisomerase 1 (Homo sapiens) (UniProt P11387); assay: Inhibition of topoisomerase 1 (unknown origin) assessed as reduction in unwinding of supercoiled pBR322 plasmid DNA by measuring reduction in electrophoretic mobility at 20 uM incubated for 30 mins by EtBr staining based agarose gel electrophoresis
T1 sequence (whole entry): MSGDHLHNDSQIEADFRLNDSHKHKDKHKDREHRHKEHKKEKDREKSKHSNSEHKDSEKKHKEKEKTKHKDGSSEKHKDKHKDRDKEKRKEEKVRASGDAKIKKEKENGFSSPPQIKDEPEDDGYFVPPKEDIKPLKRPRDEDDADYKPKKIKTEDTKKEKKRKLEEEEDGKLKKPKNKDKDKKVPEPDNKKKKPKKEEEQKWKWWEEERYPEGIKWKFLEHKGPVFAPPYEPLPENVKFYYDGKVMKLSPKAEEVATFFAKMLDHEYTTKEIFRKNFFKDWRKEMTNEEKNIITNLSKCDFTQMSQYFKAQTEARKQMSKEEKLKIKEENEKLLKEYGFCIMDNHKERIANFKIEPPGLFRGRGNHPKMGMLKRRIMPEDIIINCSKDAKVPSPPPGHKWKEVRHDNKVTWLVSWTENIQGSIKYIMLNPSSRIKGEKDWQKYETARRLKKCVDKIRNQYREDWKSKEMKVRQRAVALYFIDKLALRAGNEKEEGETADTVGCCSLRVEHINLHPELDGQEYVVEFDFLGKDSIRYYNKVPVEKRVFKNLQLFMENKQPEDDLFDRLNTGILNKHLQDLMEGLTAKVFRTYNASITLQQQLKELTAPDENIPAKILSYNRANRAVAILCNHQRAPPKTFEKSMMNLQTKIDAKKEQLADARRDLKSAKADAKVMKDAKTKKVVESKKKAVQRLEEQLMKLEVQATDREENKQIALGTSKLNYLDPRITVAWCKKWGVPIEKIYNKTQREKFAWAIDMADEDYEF

[8] = Octanol/water partition coefficient, logP of compound at pH 7.4 by HPLC analysis; assay type: physicochemical
Calf thymus DNA [9] = assay: Binding affinity to calf thymus DNA assessed as binding constant at 10 uM by fluorescence spectroscopy analysis; assay type: nucleic-acid assay; conditions: Bos taurus
Calf thymus DNA [10] = assay: Binding affinity to calf thymus DNA assessed as dissociation constant at 10 uM by fluorescence spectroscopy analysis; assay type: nucleic-acid assay, Bos taurus
[11] = Drug uptake in human HCT-116 cells assessed as increase in intracellular accumulation at 2 uM measured after 24 hrs by Hoechst 33342 staining based fluorescence confocal microscopic analysis; assay type: ADME, cell-based; conditions: hct-116, 24 h
[12] = Drug uptake in hFB-hTERT6 cells; assay type: ADME, cell-based; conditions: human
[13] = Drug uptake in human HCT-116 cells assessed as increase in intracellular accumulation at 2 uM measured after 24 hrs by flow cytometry analysis; assay type: ADME, cell-based; conditions: hct-116, 24 h
[14] = Drug localization in nucleus of human HCT-116 cells assessed as appearance of magenta color at 2 uM incubated for 24 hrs by Hoechst 33342 staining based fluorescence microscopic analysis; assay type: ADME, subcellular; conditions: hct-116, 24 h
[15] = Drug localization in lysosome of human HCT-116 cells assessed as appearance of yellow color at 2 uM incubated for 24 hrs by LysoTracker Green staining based fluorescence microscopic analysis; assay type: ADME, subcellular; conditions: hct-116, 24 h
[16] = Drug localization in mitochondria of human HCT-116 cells assessed as appearance of yellow color at 2 uM incubated for 24 hrs by MitoTracker deep red staining based fluorescence microscopic analysis; assay type: ADME; conditions: hct-116, 24 h
HCT-116 [17] = assay: Induction of oxidative stress in human HCT-116 cells assessed as increase in ROS-positive cells at 10 uM incubated for 2 hrs by Abcam-ROS deep red staining based fluorescence microscopic analysis; assay type: functional, cell-based
HCT-116 [18] = assay: Induction of oxidative stress in human HCT-116 cells assessed as increase in ROS-positive cells at 10 uM incubated for 2 hrs by flow cytometry analysis; assay type: functional, cell-based
DNA [19] = assay: Binding affinity to pBR322 plasmid DNA (unknown origin) assessed as DNA intercalation by measuring reduction in electrophoretic shift incubated for 30 mins by EtBr staining based agarose gel electrophoresis; assay type: nucleic-acid assay; conditions: dose 5-20 µM
[20] = target: T1, DNA topoisomerase 1 (Homo sapiens); assay: Inhibition of topoisomerase 1 (unknown origin) assessed as reduction in unwinding of supercoiled pBR322 plasmid DNA by measuring reduction in electrophoretic mobility at 5 to 20 uM incubated for 30 mins by EtBr staining based agarose gel electrophoresis; conditions: dose 5-20 µM
[21] = Drug uptake in human HCT-116 cells assessed as increase in intracellular accumulation at 2 uM measured after 5 mins by Hoechst 33342 staining based fluorescence confocal microscopic analysis; assay type: ADME, cell-based; conditions: hct-116, 5 min
[22] = Drug localization in lysosome of human HCT-116 cells assessed as appearance of yellow color at 2 uM incubated for 9 hrs by LysoTracker Green staining based fluorescence microscopic analysis; assay type: ADME, subcellular; conditions: hct-116, 9 h
[23] = Drug localization in mitochondria of human HCT-116 cells assessed as appearance of yellow color at 2 uM incubated for 9 hrs by MitoTracker deep red staining based fluorescence microscopic analysis; assay type: ADME; conditions: hct-116, 9 h

SMILES	IC50 (HCT-116 [1]) [nM]	IC50 (NCI-H1975) [nM]	IC50 (HL-60) [nM]	IC50 (K562) [nM]	solubility [5] [mg/mL]	Activity (DNA [6])	logD [8]	Kb (Calf thymus DNA [9])	Drug uptake [12]	Drug uptake [13]	IC50 (CAPAN-1) [nM]	IC50 (LN-229) [nM]	IC50 (Z-138) [nM]	IC50 [2] [nM]	IC50 [3] [nM]	IC50 at 72 h [4] [nM]	Kd (Calf thymus DNA [10]) [nM]	further results
Cc1oc2c(O)c3c(c(O)c2c1C(=O)N1CC[C@H](N)C1)C(=O)c1ccccc1C3=O						inactive												inhibition [7]: Active
O=C1c2ccccc2C(=O)c2c(O)c3c(c(O)c21)CC(C(=O)NCCOCCO)C3	> 50000	> 50000	> 50000	> 50000		inactive		0.011 10^6/M	Not Active	Not Active	> 50000	> 50000	> 50000	> 50000	> 50000	> 50000	90000	Drug uptake [11]: Not Active
CC(=O)[C@]1(O)Cc2c(O)c3c(c(O)c2[C@@H](O[C@H]2C[C@H](N)[C@H](O)[C@H](C)O2)C1)C(=O)c1c(O)cccc1C3=O [CARUBICIN]							0.95											
O=C1c2ccccc2C(=O)c2c(O)c3c(c(O)c21)CC(C(=O)N[C@@H]1CCNC1)C3	1600	10100	2300	2100							1600	5800	2300	2200	9200	4200		
CN1CCN(C(=O)C2Cc3c(O)c4c(c(O)c3C2)C(=O)c2ccccc2C4=O)CC1	24300	18100	> 50000	> 50000	~1.7 (≈ 4.18 mM)						35200	35000	36200	10100	> 50000	> 50000		

Second part, led by results:

IC50 (HCT-116 [1]) [nM]	IC50 (NCI-H1975) [nM]	IC50 (HL-60) [nM]	IC50 (K562) [nM]	solubility [5] [mg/mL]	Activity (DNA [6])	logD [8]	Kb (Calf thymus DNA [9])	Drug uptake [12]	Drug uptake [13]	SMILES	IC50 (CAPAN-1) [nM]	IC50 (LN-229) [nM]	IC50 (Z-138) [nM]	IC50 [2] [nM]	IC50 [3] [nM]	IC50 at 72 h [4] [nM]	Kd (Calf thymus DNA [10]) [nM]	further results
1300	8800	1200	1300	46 (≈ 117 mM)						O=C1c2ccccc2C(=O)c2c(O)c3c(c(O)c21)CC(C(=O)N1CCNCC1)C3	1400	5000	2100	1700	2200	4000		
300	620	220			Active	0.3	1.4 10^6/M	Active	Active	COc1cccc2c1C(=O)c1c(O)c3c(c(O)c1C2=O)C[C@@](O)(C(=O)CO)C[C@@H]3O[C@H]1C[C@H](N)[C@H](O)[C@H](C)O1 [DOXORUBICIN]	1710	1820	1590	760	4200		700	Drug uptake [11]: Active; Drug uptake [14]: Active; Drug uptake [15]: Active; Drug uptake [16]: Not Active; Activity (HCT-116 [17]): inactive; Activity (HCT-116 [18]): inactive
2000	3800	2800	2800				0.31 10^6/M			N[C@@H]1CN(C(=O)C2Cc3c(O)c4c(c(O)c3C2)C(=O)c2ccccc2C4=O)C[C@H]1N	1700	3900	2600	2300	35000	23000	3200	
1900	2300	2100	1900	55 (≈ 140 mM)		1.56	0.35 10^6/M	Active	Active	N[C@H]1CCN(C(=O)C2Cc3c(O)c4c(c(O)c3C2)C(=O)c2ccccc2C4=O)C1	1000	700	2500	2400	1900	4200	2900	Activity (DNA [19]): Dose-Dependent Effect; inhibition [20]: Active; Drug uptake [21]: Active; Drug uptake [22]: Active; Drug uptake [23]: Not Active; Activity (HCT-116 [17]): Active; Activity (HCT-116 [18]): Active
